According to patent US7504203B2 (priority 2002, dated 2009):

Target: GST-fused SCDH enzyme expressed from the standard strain cDNA (Pyricularia oryzae, UniProt P56221)
Type: biochemical, rice blast fungus (Pyricularia oryzae)

Sequence of GST-fused SCDH enzyme expressed from the standard strain cDNA (P56221 whole entry, looked up, the tested form may be a part): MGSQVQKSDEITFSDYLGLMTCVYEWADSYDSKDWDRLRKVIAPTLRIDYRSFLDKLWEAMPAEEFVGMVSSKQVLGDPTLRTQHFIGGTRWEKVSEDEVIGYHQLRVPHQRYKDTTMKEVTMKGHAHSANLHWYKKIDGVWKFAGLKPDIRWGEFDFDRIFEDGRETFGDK

CCC1(C(=O)N[C@H](C)c2ccc(Cl)cc2)C(C)C1(Cl)Cl (stereo partly shown) [carpropamid]
drug sensitivity compared with SCDH enzyme in crude enzyme solution from rice blast fungus: exhibited the same drug sensitivity
